Results as given in patent US20240299321A1, “METHODS TO SENSITIZE CANCER CELLS AND STANDARDIZED SCREENING ASSAY FOR IMMUNOTHERAPY” (THE TRUSTEES OF INDIANA UNIVERSITY, priority 2020, published 2024).

Key:
[1] = system: NY-ESO-1-specific CD8+ T cells; test: T cell effector function in MDA-MB-468 organoid co-culture; type: cell-based, human; details: vs control groups; FIG. 2D
Protocol: T cell effector function analysis: We measured cytokine and cytolytic granule production (IFNγ, GZMB and TNFα) of CD8+ T cells from mouse tumor samples and tumor organoid-T cell co-culture. Briefly, CD8+ T cells were placed into the 24-well plate at 1×10^6 cells/well, stimulated with 1 μM ionomycin and 50 ng ml-1 phorbol 12-myristate 13-acetate (PMA) (Sigma-Aldrich) for 4 h, in the presence of 5 μg ml-1 Brefeldin A (BFA), with the purpose to amplify the expression of intracellular cytokines61. The cells were stained with APC/Cy7-conjugated anti-CD8a (Biolegend) for 15 min and then fixed by 4% PFA. After washing, cells were stained with PerCP/Cy7-conjugated anti-GZMB, APC-conjugated anti-IFNγ and PE-conjugated anti-TNFα (Biolegend) for 15 min. In flow cytometric analyses, T cells stained with isotype control antibodies were used as negative controls for gating the cytokine or granule-producing cells. For T cells from tumor organoid-T cell co-culture, tumor organoids were first digested into single cells with TrypLE Express at 37° C. before APC/Cy7-conjugated anti-CD8a staining. In the IFNγ and TNFα secretion assay (Biolegend), T cells were stimulated with ionomycin and PMA without the presence of BFA. The media were collected for ELISA assay.

EO771 tumors = test: EO771 orthotopic breast tumor model in immunodeficient nude (NU/J) mice; type: in vivo; details: for tumor growth and weight: immune-deficient nude mice, 20 mg kg-1, vs control group; for size of gross dissected mammary EO771 tumors: nude mice, 20 mg kg−1, harvested day 18
Protocol: Animal studies: All animal experiments were performed in accordance with the National Institutes of Health's Animal Use Guidelines and protocols approved by the Animal Care and Use Committee of Indiana University School of Medicine. […] Each mouse was injected with a total of 2×10^5 tumor cells. 5 mice were used in each group. Tumors were measured in two dimensions using a manual caliper. Tumor volume was calculated using the following formula: V=0.5×length×width×width. Tumor volume was measured every 3 days. Tumors were harvested 22 days after injection. The tumor growth, volume and weight were analyzed. To evaluate the anti-tumor effect of drugs in immunocompetent C57BL/6 mice and immunodeficient nude (NU/J) mice, 2×10^5 EO771 cells were orthotopically injected into fat pad of the 4th mammary gland in female mice. […] For CD4/CD8 depletion experiment, the tumor-bearing mice were randomly divided into 7 groups (n=8 mice/group) including isotype control (rat IgG2a, Bioxcell), isotype control+CUDC-101, isotype control+BML-210, anti-CD8 (Clone: 53-6.72, Bioxcell)+CUDC-101, anti-CD8+BML-210, anti-CD4 (Clone: GK1.5, Bioxcell)+CUDC-101, or anti-CD4+BML-210. Intraperitoneal injection of inhibitors (20 mg kg-1) and anti-CD4/CD8 (10 mg kg-1) were administrated to the mice by 3 times/week for 2 weeks. The tumors were harvested at day 18 (NU/J mice) or day 28 (C57BL/6 mice) for further analyses. In immune checkpoint blockade experiment, 2×10^5 EO771 cells were orthotopically injected into fat pad of the 4th mammary gland in female C57BL/6 mice. From day 10, the tumor-bearing mice were randomly divided into each treatment group (n=8 mice/group), and the mice were treated with IgG2a isotype control antibody (clone 2A3, Bioxcell), BML-210 (20 mg kg-1), anti-PD-1 (200 μg/mouse, Bioxcell), or BML-210 and anti-PD-1 combo. The treatment was done 3 times/week for 2 weeks. Tumors were harvested at day 26 post injection and the tumors were analyzed by IHC staining, flow cytometry, ELISA or CyTOF assay.

[2] = Organ damage in treated mice; type: in vivo
EO771 cells = test: Gene expression in EO771 cells (RNA-seq, quantitative RT-PCR); type: cell-based, mouse
Protocol: Quantitative reverse transcription PCR (RT-PCR): Mouse EO771 cells were treated with and without BML-210 drug for 48 h. Total RNA was isolated from the cells using TRIzol (Ambion, Lot: 260808) and the miRNeasy Mini kit (Qiagen, 157029493, Thermo Scientific). The quality of the RNA was quantified by a Nano Drop 2000 spectrophotometer. A total of 1 μg RNA was reverse transcribed into cDNA using the […] superMix reagent (Quantabio, 66141329). Quantitative PCR was performed using SYBR Green […] low Rox reagent (TaKaRa) on a Quantstudio real-time PCR system (ThermoFisher Scientific). RNA sequencing: Total RNA was extracted from EO771 cells using TRIzol (Ambion) and the miRNeasy Mini kit (Qiagen). The quantity and quality of the RNA was evaluated by an Agilent Bioanalyzer 2100. 100 ng of total RNA from each sample was used, from which ribosomal RNA was removed by the QIAseq FastSelect rRNA Removal HMR Kit (Qiagen). The cDNA library was constructed using the KAPA RNA Hyper Prep Kit (Roche Corporate) and the quality was accessed by the Qubit and Agilent Bioanalyzer. The library pool was sequenced in 100b paired-end read format on NovaSeq 6000 (Illumina) at the Center for Medical Genomics, Indiana University School of Medicine (IUSM). RNA-seq analysis: The reads were mapped to the mouse genome mm10 using STAR (v2.5)65. RNA-seq aligner with the following parameter: “--outSAMmapqUnique 60”. Uniquely mapped sequencing reads were assigned to GENCODE M22 genes using feature Counts (v1.6.2)66 with the following parameters: “-s 2 -p -Q 10”. […] The data were visualized with volcano plot using MATLAB. The gene enrichment analysis on DEGs from the Kyoto Encyclopedia of Genes and Genomes (KEGG) pathway database and Gene Ontology database was performed using the Database for Annotation, Visualization and Integrated Discovery (DAVID) functional analysis69. The analysis was visualized using MATLAB with q value (-log 10) and gene number in each GO and pathway. Gene set enrichment analysis (GSEA) of the antigen processing and presentation pathway was carried out with GSEA software70.

MDA-MB-468 cells = test: Gene expression in MDA-MB-468 cells (quantitative RT-PCR); type: cell-based, human; details: BML-210 1.0 μM, FIG. 4B
mouse melanoma model = details: reported; cited from earlier work

Row | SMILES | GZMB, IFNγ and TNFα expression levels in the CD8+ T cells [1] | tumor growth and weight (EO771 tumors) | size of gross dissected mammary EO771 tumors (EO771 tumors) | visible damages in the heart, kidney, spleen, liver and lung [2] | expression of antigen processing and presentation DEGs (qPCR) (EO771 cells; EO771, BML-210 1.0 μM, FIG. 4A) | MHC-I genes (H2-D1, H2-K2, B2M), lysosome gene (Lamp1), endosome gene (Hspa8) (EO771 cells; RNA-seq) | genome-wide gene expression profile (GO enrichment) (EO771 cells; RNA-seq) | expression of antigen processing and presentation DEGs (qPCR) (MDA-MB-468 cells) | CD8+ T cell infiltration and anti-tumor response (mouse melanoma model)
1 | Nc1ccccc1NC(=O)CCCCCCC(=O)Nc1ccccc1 [BML-210] | much higher | No significant differences | no significant difference in size | No visible damages | most of DEGs had higher expression levels | induced | upregulation of genes particularly enriched in lysosome, phagosome, antigen processing and presentation pathways | most of DEGs had higher expression levels | 
2 | C#Cc1cccc(Nc2ncnc3cc(OC)c(OCCCCCCC(=O)NO)cc23)c1 [CUDC-101] | much higher | No significant differences | no significant difference in size | No visible damages |  |  |  |  | 
3 | c1ccc([C@@H]2C[C@H]2NC2CCNCC2)cc1 [GSK-LSD1] | much higher |  |  |  |  |  |  |  | promote CD8+ T cell infiltration and anti-tumor response
